Assay results reported in patent US20200390100A1, “SUBSTITUTED N-HETEROCYCLYL- AND N-HETEROARYL-TETRAHYDROPYRIMIDINONES AND THE SALTS THEREOF, AND THE USE OF SAME AS HERBICIDAL ACTIVE SUBSTANCES” (Bayer Aktiengesellschaft, priority 2017, published 2020).

Experiments:
[1] = test system: Pharbitis purpurea; assay: Pre-emergence herbicidal action, greenhouse, 320 g/ha; assay type: in vivo; conditions: application rate 320 g/ha, Table B12
In short: (§1)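 Test substances, formulated as wettable powders or emulsion concentrates, are applied to the soil covering the seeds in water containing 0.5% additive. Scoring after roughly three weeks is visual and expressed in percent relative to untreated controls.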

[2] = test system: Veronica persica; assay: as above; assay type: in vivo; conditions: application rate 320 g/ha, Table B13
In short: as §1

[3] = test system: Hordeum murinum; assay: as above; assay type: in vivo; conditions: application rate 320 g/ha, Table B14
In short: as §1

[4] = test system: Viola tricolor; assay: as above; assay type: in vivo; conditions: application rate 320 g/ha, Table B8
In short: as §1

[5] = test system: Avena fatua; assay: as above; assay type: in vivo; conditions: application rate 320 g/ha, scored visually after about 3 weeks vs untreated controls
In short: as §1

[6] = test system: Matricaria inodora; assay: as above; assay type: in vivo; conditions: application rate 320 g/ha, scored visually after about 3 weeks vs untreated controls
In short: as §1

[7] = test system: Polygonum convolvulus; assay: as above; assay type: in vivo; conditions: application rate 320 g/ha, scored visually after about 3 weeks vs untreated controls
In short: as §1

[8] = test system: Abutilon theophrasti; assay: as above; assay type: in vivo; conditions: application rate 320 g/ha, scored visually after about 3 weeks vs untreated controls
In short: as §1

[9] = test system: Echinochloa crus-galli; assay: as above; assay type: in vivo; conditions: application rate 320 g/ha, scored visually after about 3 weeks vs untreated controls
In short: as §1

[10] = test system: Alopecurus myosuroides; assay: as above; assay type: in vivo; conditions: application rate 320 g/ha, scored visually after about 3 weeks vs untreated controls
In short: as §1

[11] = test system: Stellaria media; assay: as above; assay type: in vivo; conditions: application rate 320 g/ha, scored visually after about 3 weeks vs untreated controls
In short: as §1

[12] = test system: Setaria viridis; assay: as above; assay type: in vivo; conditions: application rate 320 g/ha, Table B11
In short: as §1

[13] = test system: Amaranthus retroflexus; assay: as above; assay type: in vivo; conditions: application rate 320 g/ha, scored visually after about 3 weeks vs untreated controls
In short: as §1

[14] = test system: Pharbitis purpurea; assay: Post-emergence herbicidal action, greenhouse, 320 g/ha; assay type: in vivo; conditions: application rate 320 g/ha, rated visually after about 3 weeks vs untreated controls
In short: (§2)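 Plants treated post-emergence at the one-leaf stage, 2 to 3 weeks after sowing in sandy loam, with WP or EC formulations plus 0.5% additive at 320 g/ha. Visual rating about 3 weeks later versus untreated controls (100% = dead, 0% = like control).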

[15] = test system: Veronica persica; assay: as above; assay type: in vivo; conditions: application rate 320 g/ha, rated visually after about 3 weeks vs untreated controls
In short: as §2

[16] = test system: Hordeum murinum; assay: as above; assay type: in vivo; conditions: application rate 320 g/ha, rated visually after about 3 weeks vs untreated controls
In short: as §2

[17] = test system: Viola tricolor; assay: as above; assay type: in vivo; conditions: application rate 320 g/ha, rated visually after about 3 weeks vs untreated controls
In short: as §2

[18] = test system: Matricaria inodora; assay: as above; assay type: in vivo; conditions: application rate 320 g/ha, rated visually after about 3 weeks vs untreated controls
In short: as §2

[19] = test system: Polygonum convolvulus; assay: as above; assay type: in vivo; conditions: application rate 320 g/ha, rated visually after about 3 weeks vs untreated controls
In short: as §2

[20] = test system: Abutilon theophrasti; assay: as above; assay type: in vivo; conditions: application rate 320 g/ha, rated visually after about 3 weeks vs untreated controls
In short: as §2

[21] = test system: Alopecurus myosuroides; assay: as above; assay type: in vivo; conditions: application rate 320 g/ha, rated visually after about 3 weeks vs untreated controls
In short: as §2

[22] = test system: Stellaria media; assay: as above; assay type: in vivo; conditions: application rate 320 g/ha, rated visually after about 3 weeks vs untreated controls
In short: as §2

[23] = test system: Setaria viridis; assay: as above; assay type: in vivo; conditions: application rate 320 g/ha, rated visually after about 3 weeks vs untreated controls
In short: as §2

[24] = test system: Digitaria sanguinalis; assay: as above; assay type: in vivo; conditions: application rate 320 g/ha, rated visually after about 3 weeks vs untreated controls
In short: as §2

[25] = test system: Amaranthus retroflexus; assay: as above; assay type: in vivo; conditions: application rate 320 g/ha, rated visually after about 3 weeks vs untreated controls
In short: as §2

[26] = target: T1, photosystem II (PS II) (Spinacia oleracea, UniProt P69560); assay: Measurement of PS II activity in thylakoid membranes (DCPIP reduction); assay type: biochemical, spinach; conditions: PS II activity in spinach thylakoid membranes, Table E1; read-out: Effect
T1 construct: the chloroplasts were osmotically ruptured and the thylakoid membranes were then obtained by centrifugation; from tissue; host or cells: fresh spinach leaves; thylakoid membrane preparation from isolated chloroplasts
Protocol: Cooled fresh spinach leaves were comminuted and homogenized in 50 mM phosphate buffer, pH 6.8. 10 mM KCl, 0.34 M sucrose (sucrose buffer) (blender, 1 g of plant material/ml). The homogenate was subsequently filtered through 4 layers of Miracloth and the chloroplasts were isolated by centrifugation, i.e. 10 min of centrifugation at 4400×g (4° C.). The sediment was suspended in 25 ml of sucrose buffer and re-centrifuged for 10 min at 4400×g (4° C.). The sediment was then suspended in 40 ml of 50 mM phosphate buffer, pH 6.8, 10 mM KCl, without sucrose. In this step, the chloroplasts were osmotically ruptured and the thylakoid membranes were then obtained by centrifugation (10 min, 4400×g, 4° C.). The membrane sediment was finally suspended in about 20 ml of 50 mM phosphate buffer, pH 6.8, 10 mM KCl. Following protein determination and activity determination, the membrane suspension was divided into aliquots and frozen in liquid nitrogen. The aliquots were stored at −80° C. Under these conditions, the photosystem II preparation was storage stable for at least three months. The activity determination of photosystem II (PS II) was then carried out using the following test principle: The electron transfer from PS II to an artificial electron acceptor, 2,6-dichlorophenolindophenol (DCPIP), was measured with exposure to light. The concentration of the blue oxidized form of DCPIP was determined spectrophotometrically at wavelength λ=595 nm. […] The activity determination is carried out in microtiter plates (96 cavities) in a reaction volume of 200 μl. Here, 155 μl of dilute membrane suspension were initially charged in 50 mM of phosphate buffer, pH 6.8, 10 mM KCl. Depending on the activity of the PS II preparation, the dilution was adjusted such that the measurement of the decrease in absorption (λ=595 nm) was linear for at least 10 min. In each case 5 μl solutions of the test compounds of a concentration of 100 μM in DMSO were added to the enzyme suspension; controls contained 5 μl of DMSO; the final concentration of DMSO in the reaction batch was thus 2.5% (v/v); this concentration had no adverse effect on the enzymatic activity. On each microtiter plate, a known PS II inhibitor, for example metribuzin, was used as standard, which allowed the quality of the PS II test to be assessed. The reaction was started by addition of 40 μl DCPIP solution (600 μM in distilled water); the final concentration of DCPIP was 120 μM. Measurement of absorption is carried out over a period of 10 min at 22° C. and with exposure to light. Using metribuzin as comparative substance, the results for the efficacy of the compounds of the general formula (I) at 100 μM are stated in the table below using the following classification: ++++(inhibition≥90%), +++(90%>inhibition≥70%), ++(70%>inhibition≥50%), +(50%>inhibition≥30%).

Row | Compound | Veronica persica (efficacy in %) [2] | Hordeum murinum (efficacy in %) [3] | Viola tricolor (efficacy in %) [4] | Avena fatua (efficacy in %) [5] | Matricaria inodora (efficacy in %) [6] | Polygonum convolvulus (efficacy in %) [7] | Abutilon theophrasti (efficacy in %) [8] | Echinochloa crus-galli (efficacy in %) [9] | Alopecurus myosuroides (efficacy in %) [10] | Stellaria media (efficacy in %) [11] | Setaria viridis (efficacy in %) [12] | Amaranthus retroflexus (efficacy in %) [13] | Pharbitis purpurea (efficacy in %) [14] | Veronica persica (efficacy in %) [15] | Viola tricolor (efficacy in %) [17] | Matricaria inodora (efficacy in %) [18] | Polygonum convolvulus (efficacy in %) [19] | Abutilon theophrasti (efficacy in %) [20] | Stellaria media (efficacy in %) [22] | Setaria viridis (efficacy in %) [23] | further results
1 | CC(C)CC(=O)OC1CCN(C)C(=O)N1c1cc(C(C)(C)C)on1 (stereo not drawn) [I.7-162, 3-(5-tert-Butyl-1,2-oxazol-3-yl)-1-methyl-2-oxohexahydropyrimidin-4-yl 3-methylbutanoate] | 80% | 90% | 100% | 100% | 100% | 90% | 100% | 80% | 90% | 100% | 100% | 100% | 100% | 90% | 100% | 100% | 90% | 100% | 100% | 100% | Pharbitis purpurea (efficacy in %) [1]: 100%; Hordeum murinum (efficacy in %) [16]: 80%; Alopecurus myosuroides (efficacy in %) [21]: 90%; Digitaria sanguinalis (efficacy in %) [24]: 80%; Amaranthus retroflexus (efficacy in %) [25]: 100%
2 | CCCC(=O)OC1CCN(C)C(=O)N1c1cc(C(C)(C)C)on1 (stereo not drawn) [I.4-162, 3-(5-tert-Butyl-1,2-oxazol-3-yl)-1-methyl-2-oxohexahydropyrimidin-4-yl Butyrate] | 100% | 90% | 100% | 90% | 100% | 90% | 100% | 90% | 90% | 100% | 100% | 100% | 100% | 100% | 90% | 100% | 100% | 100% | 100% | 100% | Digitaria sanguinalis (efficacy in %) [24]: 80%; Amaranthus retroflexus (efficacy in %) [25]: 100%; inhibition at 100 µM [26]: 50 to 70%
